Test results as given in publication PMC9502539, “1,2,3-Triazole-Benzofused Molecular Conjugates as Potential Antiviral Agents against SARS-CoV-2 Virus Variants” (Life, 2022).
Like-named read-outs stand apart in the source and are kept apart here.

Biological target: Omicron spike protein (Severe acute respiratory syndrome coronavirus 2, UniProt P0DTC2, E484A/G339D/G446S/G496S/K417N/N440K/N501Y/Q493R/Q498R/S371L/S373P/S375F/S477N/T478K/Y505H)
Type: binding, SARS-CoV-2 Omicron variant (B.1.1.529 BA.1)

Compound	remaining activity % of omicron spike proteins (0.1 µM)	remaining activity % of omicron spike proteins (0.2 µM)	remaining activity % of omicron spike proteins (0.5 µM)	remaining activity % of omicron spike proteins (0.75 µM)	remaining activity % of omicron spike proteins (1 µM)
Cc1ccc2nc(NC(=O)Cn3cc(CN4C(=O)C(=O)c5ccccc54)nn3)sc2c1 [compound 12]	94%	90%	82%	74%	59%
O=C(Cn1cc(CSc2nc3ccccc3n2Cc2cn(CC(=O)NNC(=S)Nc3ccc(F)cc3)nn2)nn1)NNC(=S)Nc1ccc(F)cc1 [compound 5]	82%	38.7%	30%	20%	16%
O=C(Cn1cc(CSc2nc3ccccc3n2Cc2cn(CC(=O)NNC(=S)Nc3ccccc3)nn2)nn1)NNC(=S)Nc1ccccc1 [compound 4]	73.1%	40%	20%	10%	8%
CC(C)(O/N=C(\C(=O)N[C@@H]1C(=O)N2C(C(=O)[O-])=C(C[n+]3ccccc3)CS[C@H]12)c1csc(N)n1)C(=O)O [Ceftazidime, ceftazidime, reference compound]	89%	68%	54%	44%	34%
Nn1c(Cn2cc(CSc3nc4ccccc4n3Cc3cn(Cc4n[nH]c(=S)n4N)nn3)nn2)n[nH]c1=S [compound 7]	85%	43%	40%	35%	30%
S=c1[nH]nc(Cn2cc(CSc3nc4ccccc4n3Cc3cn(Cc4n[nH]c(=S)n4-c4ccccc4)nn3)nn2)n1-c1ccccc1 [compound 6]	79%	45.6%	29%	16%	10%
Cc1onc(NS(=O)(=O)c2ccc(-n3cc(CSc4nc5ccccc5n4Cc4cn(-c5ccc(S(=O)(=O)Nc6noc(C)c6C)cc5)nn4)nn3)cc2)c1C [compound 9]	65.8%	30.4%	10.3%	5.1%	2%
